Experimental data from patent US20250057930A1, “ANAPLASTIC LYMPHOMA KINASE (ALK) CANCER VACCINES AND METHODS OF USE THEREOF” (The Children's Medical Center Corporation, priority 2022, published 2025).
Ends that are not written are not given here.

How the values were obtained:
[1] = system: Ad-EA mice (mEml4-Alk rearranged lung tumor); experiment: Lung tumor volume by MRI and survival in Ad-EA mice; type: in vivo, mouse; conditions: crizotinib 40 mg/kg or lorlatinib 2 mg/kg, MRI
Excerpt: EML4-ALK transgenic (Tg) mice, which express the human EML4-ALK (E13;A20, human variant 1) driven by the SP-C promoter (henceforth referred as hEML4-ALK Tg mice), and BALB/c mice infected intratracheally with adenovirus carrying the CRISPR/Cas9 system to induce in vivo the Eml4-Alk rearrangement (E14;A20, mouse variant 1) (henceforth referred as Ad-EA mice). […] In these models, magnetic resonance imaging (MRI) (FIG. 1B) allowed precise cohort stratification and tumor follow-up.
Anatomical T2-weighted coronal images were acquired with a respiratory-triggered multislice fast spin echo RARE sequence (TR=4 s, TE=4.5 ms, Rare Factor (RF)=16, FOV=30 mm^2, Matrix=256×256, slices=16-20, slice thickness=1 mm, 2 averages, providing an in-plane spatial resolution of 117 μm) with a 7T MRI (Bruker Advance III, Ettlingen, Germany) scanner equipped with a quadrature 1H coil. Animals were anesthetized by intraperitoneal injection of a combination of ROMPUN® (Bayer, 5 mg/kg) and ZOLETIL 100® (Laboratoires Virbac, 20 mg/kg); breathing was monitored during acquisition of the MR images with a respiratory sensor (SA Instruments, Inc.). Tumor volumes and numbers of masses calculations were performed by manual segmentation (slice by slice contouring) with ITK-SNAP software (www.itksnap.org).
Syngeneic mice models transplanted with tumor cells were treated intraperitoneally with 200 μg of anti-PD-1 and/or anti-CTLA-4 (clone 9D9, Bioxcell), on days 3, 6, and 9 post-tumor transplantation (3 injections/per mouse).

[2] = system: splenocytes isolated from mice vaccinated with ALK-DNA vaccine; experiment: IFN-γ ELISPOT screening of synthetic long peptides on splenocytes of ALK-DNA vaccinated mice; type: cell-based, mouse; conditions: ALK-DNA vaccine group, average ±SEM
Method: Despite the known immunogenicity of the ALK protein, the data imply that ALK^+ mouse lung tumors induce an immune response insufficient to be activated by immune checkpoint inhibitor (ICI) treatment. Therefore, it was decided to directly investigate anti-ALK immune responses during ICI treatment by identifying the specific ALK peptides that induce T-cell mediated immune responses in mouse models. To identify the ALK-specific T-cell epitopes, an in vitro peptide screening was performed. A set of 21 overlapping synthetic long peptides (SLP), that encompassed the ALK cytoplasmic domain (FIG. 9A; Table 1), was incubated with splenocytes isolated from mice vaccinated with a vector encoding most of the ALK cytoplasmic domain (ALK-DNA vaccine) as previously described in Chiarle R, Martinengo C, Mastini C, Ambrogio C, D'Escamard V, Fori G, et al. The anaplastic lymphoma kinase is an effective oncoantigen for lymphoma vaccination.
The interferon-γ release enzyme-linked immune absorbent spot (ELISPOT) assay was performed using a commercial kit (Mouse IFN-γ ELISPOT, Mabtech, Stockholm, Sweden) according to the manufacturer's instructions. Briefly, the ELISPOT plate was prepared in sterile conditions and washed with sterile PBS (200 μL/well) for 5 times. […] All plates were evaluated by a computer assisted ELISPOT reader (CTL Immunospot analyzer, OH, USA).

[3] = system: ALK-rearranged (ALK^+) NSCLC; conditions: first-line treatment; cited from earlier work
[4] = system: ALK-specific CD8+ T cells; experiment: Vaccination of HLA B*07:02 transgenic mice, IFN-γ ELISPOT of splenocytes; type: in vivo, mouse; conditions: short and long peptide groups pooled, of 12 mice
Excerpt: Transgenic mice expressing the human HLA B*07:02 were vaccinated with different peptides containing the core epitopes […] (SEQ ID NO: 4) or […] (SEQ ID NO: 3): […] (SEQ ID NO: 4) (IVRshort), […] (SEQ ID NO: 1) (IVRlong), […] (SEQ ID NO: 3) (RPRshort), […] (SEQ ID NO: 2) (RPRlong). ALK-specific CD8+ T cells responses were detected in 12/12 (100%) mice vaccinated with either the IVRshort peptide or the IVRlong peptide and in 6/12 (50%) of mice vaccinated with either the PRPshort peptide or the RPRlong (FIG. 7D). Finally, ALK-specific CD8+ T cells responses were also detected in peripheral blood mononuclear cells (PBMCs) from 3/6 (50%) ALK+ NSCLC patients when stimulated with the […] (SEQ ID NO: 4) peptide but not with the […] (SEQ ID NO: 3) peptide (FIGS. 7E and 16B; Tables 6-7). Overall, four immunogenic ALK peptides in the context of the HLA A*02:01 and B*07:02 alleles were identified by mass spectrometry that can pave the way toward the design of a human ALK vaccine.
The interferon-γ release enzyme-linked immune absorbent spot (ELISPOT) assay was performed using a commercial kit (Mouse IFN-γ ELISPOT, Mabtech, Stockholm, Sweden) according to the manufacturer's instructions. Briefly, the ELISPOT plate was prepared in sterile conditions and washed with sterile PBS (200 μL/well) for 5 times. Consecutively, the plate was conditioned with fresh DMEM medium (200 μL/well) contained 10% of the same fetal bovine serum used for the splenocytes suspension and incubated for 30 minutes at room temperature. After incubation, the medium was discarded and 2.5×10^5 splenocytes were plated in each well together with the appropriate stimuli. The plate was incubated over/night at 37° C. in humidified conditions with 5% C02. The day after, cells were discarded, and the plate was washed 5 times with PBS. Biotinylated detection anti-IFN-γ mAb (1 μg/mL) was added into the wells, followed by 2 hours of incubation at room temperature. […] All plates were evaluated by a computer assisted ELISPOT reader (CTL Immunospot analyzer, OH, USA).

[5] = system: CD8^+ T cells from NSCLC patients; experiment: IFN-γ ELISPOT of patient CD8^+ T cells expanded with ALK peptides; type: cell-based, human
Method: Non-small cell lung cancer (NSCLC) patients, at the Dana-Farber Cancer Institute, consented to an institutional review board (IRB)-approved correlative research protocol that allowed for review of medical records and sample collection. Lung cancer mutation status was determined using standard CLIA-certified clinical assays in the Center for Advanced Molecular Diagnostics at Brigham and Women's Hospital. For each patient, 10 mL of whole blood was collected into K3-EDTA tubes, and peripheral blood mononuclear cells (PBMCs) (peripheral blood mononuclear cells) were isolated with Ficoll-Paque Plus density separation (GE Healthcare), and consequently frozen until use.
Frozen PBMCs from patients with NSCLC were thawed, resuspended in cold RPMI containing 3% of human AB heat-inactivated serum (Sigma Aldrich), and cultured in a T-175 culture flask for 50 min. at 37° C. in 5% C02 to induce the attachment of CD14^+ monocytes to the plastic. The remaining floating PBMCs were removed with gentle washes of PBS and warm media. Monocytes were then cultured in RPMI containing 3% of human AB heat-inactivated serum, 2% Penicillin/Streptomycin, 1% Glutamine, and 25 nM HEPES with GM-CSF (120 ng/mL, Preprotech) and IL-4 (70 ng/mL, Preprotech). Fresh GM_CSF and IL-4 were added on days 3 and 5. On day 6, Poly I:C (30 μg/mL, Sigma Aldrich) was added for 24 hours to induce DCs maturation.
B cells were expanded using the CD40 system (68,69). Briefly, NIH-3T3-CD40L cells were irradiated (9600 rads) and plated in a 6 well plate (400.000 cells/well) without Gentamycin. The following day, 8×10^6 PBMCs were resuspended in 4 mL of IMDM (Glutamine, Hepes, Gibco) containing 10% human AB serum heat-inactivated (Sigma Aldrich), Transferrin (50 μg/ml, Lonza), Insulin (5 μg/ml, BioXtra), Cyclosporine A (5.5×10^−7M, Sigma Aldrich), IL-4 (2 ng/ml, Preprotech) and Gentamycin (15 μg/ml, Gibco), and co-cultured with the irradiated NIH-3T3-CD40L for 5 days. PBMCs were then counted and cultured at the same concentration together with newly irradiated NIH-3T3-CD40L for 3 more days. After 12 days 95% of the cells were CD19^+ and could be expanded similarly every 3-4 days at a concentration of 10^6/mL. B cells were always used after 15 days of culture.
CD8^+ T cells were purified using magnetic beads (CD8^+ T cell isolation Kit, Miltenyi) and co-cultured with DCs (20:1; around 10^6 CD8^+ T cells:50.000 DCs) in AIM V media (Gibco) with 5% human AB heat-inactivated serum (Sigma Aldrich), 20 units/mL IL-2 (Preprotech) and 10 ng/mL IL-7 (Preprotech). Before co-culture, DCs were pulsed with the 10 μg/mL of the desired peptide in AIM V media without serum at 37° C. in 5% CO2. Fresh IL-2 and IL-7 were added every 3-4 days. After 7 days, 3-4 million PBMCs CD8^+ T cells were co-cultured with peptide-pulsed DCs and cytokines (20-40:1 ratio). 3rd and 4th stimulation stimulations were done using 4-5 million CD8^+ T cells and peptide-pulsed irradiated B cells (ratio 4:1, 3000 rads) and fresh IL2 and IL7 (days 14 and 21). CD8^+ T-cell responses were then evaluated in an IFN-γ-ELISPOT assay (Mabtech) using peptide-pulsed B cells (1:1 ratio) as target cells. CD8^+ T cells were purified the day before the ELISPOT assay and rested overnight in media without cytokines. The ELISPOT was performed with FBS heat inactivated as recommended by the manufacturer. When the human material was limited, PBMCs or B0 cells were used in the first round of stimulation.

[6] = Toxicity of the ALK vaccine in HLA-A*02:01 and HLA-B*07:02 transgenic mice; type: in vivo, mouse; conditions: for toxicity in vaccinated mice: HLA-A*02:01 (AMLDLLHVA) and HLA-B*07:02 (IVRCIGVSL) transgenic mice, CDN adjuvant; for CD8^+ T cells in the hypothalamus region / H&E and pan-HLA immunohistochemistry staining of the hypothalamus region / weight gain: mouse, in vivo
Excerpt: Transgenic mice (HLA-A*02:01 and HLA-1B*07:02) were vaccinated as shown in the schematic in FIG. 18A with either […] (SEQ ID NO: 7) or […] (SEQ ID NO: 4) peptides, respectively, and cyclic dinucleotides (CDN) adjuvant. Weight measurements were taken at discrete time points. Next, splenocytes were isolated and assayed and brain tissue was sectioned and imaged (FIG. 18C).

For `C[C@@H](Oc1cc(-c2cnn(C3CCNCC3)c2)cnc1N)c1c(Cl)ccc(F)c1Cl` [crizotinib], which “tumor response at the end of treatment” value [1] is on record?
Its value is “stabilized tumors”.

For “LTANMKEVPLFRLRHFPCGNVNYGYQQQGLPLEAAT [SLP20]”, which “number of IFN-γ-spots” value [2] is on record?
The value was “Weaker responses”.

With `COc1cc(N2CCC(N3CCN(C)CC3)CC2)ccc1Nc1ncc(Cl)c(Nc2ccccc2P(C)(C)=O)n1` [brigatinib] as the compound, how does the “time to disease progression in most patients” value [3] read?
Its value is “three”.

Which “mice with ALK-specific CD8+ T cells responses detected” value [4] does the source give for RPRPSQPSSL here?
The value was 50%.

What about the “Average Spots Forming Units (2 wells)/20 000 CD8^+ T cells” value (“Average Spots Forming Units” below) ([5]; Patient 1 (ALK), IVRCIGVSL expanded) of the same compound?
The value was 5.5 Spots Forming Units/20 000 CD8.

And the “Average Spots Forming Units” value ([5]; Patient 1 (ALK), RPRPSQPSSL expanded)?
Its value is 4.5 Spots Forming Units/20 000 CD8.

And the “Average Spots Forming Units” value ([5]; Patient 2 (ALK), IVRCIGVSL expanded)?
The value was 27.5 Spots Forming Units/20 000 CD8.

What about the “Average Spots Forming Units” value ([5]; Patient 2 (ALK), RPRPSQPSSL expanded) of the same compound?
Its value is 0 Spots Forming Units/20 000 CD8.

What about the “Average Spots Forming Units” value ([5]; Patient 3 (ALK), IVRCIGVSL expanded) of the same compound?
The value was 6.5 Spots Forming Units/20 000 CD8.

And the “Average Spots Forming Units” value ([5]; Patient 3 (ALK), RPRPSQPSSL expanded)?
Its value is 3 Spots Forming Units/20 000 CD8.

And the “Average Spots Forming Units” value ([5]; Patient 4 (ALK), RPRPSQPSSL expanded)?
Its value is 2 Spots Forming Units/20 000 CD8.

What about the “Average Spots Forming Units” value ([5]; Patient 5 (KRASG12V), RPRPSQPSSL expanded) of the same compound?
Its value is 1 Spots Forming Units/20 000 CD8.

What about the “Average Spots Forming Units” value ([5]; Patient 6 (EGFR del exon19), IVRCIGVSL expanded) of the same compound?
The value was 1.5 Spots Forming Units/20 000 CD8.

And the “Average Spots Forming Units” value ([5]; Patient 6 (EGFR del exon19), RPRPSQPSSL expanded)?
The value was 10 Spots Forming Units/20 000 CD8.

And the “Average Spots Forming Units” value ([5]; Patient 7 (KRASG12D), IVRCIGVSL expanded)?
The value was 1 Spots Forming Units/20 000 CD8.

And the “Average Spots Forming Units” value ([5]; Patient 7 (KRASG12D), RPRPSQPSSL expanded)?
Its value is 3 Spots Forming Units/20 000 CD8.

And the “Average Spots Forming Units” value ([5]; Patient 8 (EGFR del exon19), IVRCIGVSL expanded)?
Its value is 2 Spots Forming Units/20 000 CD8.

What about the “Average Spots Forming Units” value ([5]; Patient 8 (EGFR del exon19), RPRPSQPSSL expanded) of the same compound?
The value was 10 Spots Forming Units/20 000 CD8.

Which “toxicity in vaccinated mice” value [6] does the source give for AMLDLLHVA here?
The value was “no detectable toxicity”.

And the “CD8^+ T cells in the hypothalamus region” value [6]?
Its value is “Not a significant amount”.

What about the “H&E and pan-HLA immunohistochemistry staining of the hypothalamus region” value [6] of the same compound?
Its value is “healthy tissue”.

And the weight gain [6]?
The weight gain was “the same as the control mice”.

For “GYQQQGLPLEAATAPGAGHYEDTILKSKNSMNQPGP [SLP21]”, which “number of IFN-γ-spots” value [2] is on record?
The value was “Weaker responses”.

For GGDLKSFLRETRPRPSQPSSLAM [RPRlong], which “mice with ALK-specific CD8+ T cells responses detected” value [4] is on record?
Its value is 50%.

Which “mice with ALK-specific CD8+ T cells responses detected” value [4] does the source give for FNHQNIVRCIGVSL [IVRlong] here?
The value was 100%.

Which results are given for IVRCIGVSL?
toxicity in vaccinated mice [6]: no detectable toxicity; CD8^+ T cells in the hypothalamus region [6]: Not a significant amount; H&E and pan-HLA immunohistochemistry staining of the hypothalamus region [6]: healthy tissue; weight gain [6]: the same as the control mice
